These results are taken from the supplement of paper PMC4862054.

What all share (assay): normalised viability (% of control), CellTiter-Blue; higher = more viable cells (about 100 = DMSO control)
What all share (conditions): incubation time: 72 h
A general note: Resazurin is reduced to fluorescent resorufin, in cell work by metabolically active cells.

For experiment [1], the system named is HDQ-P1. The method, then: (§1)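 DSRT, CellTiter-Blue viability, 72 h incubation. Signal is normalised to DMSO and benzethonium chloride controls. Value is the normalised response at dose 8.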
For experiment [2], the system named is CAL-51. The method, then:
as §1

The subject of experiment [3] is CAL-85-1. The method, then:
as §1

Experiment [4] deals with MDA-MB-453. The method, then:
as §1

In experiment [5] the test system is CAL-148. The method, then:
as §1

Experiment [6] relates to DU-4475. The protocol:
as §1

Experiment [7] concerns HDQ-P1. The protocol:
(§2)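 DSRT, CellTiter-Blue viability, 72 h incubation. Signal is normalised to DMSO and benzethonium chloride controls. Value is the normalised response at dose 6.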
This is another data set of the same source.

The subject of experiment [8] is CAL-51. The protocol:
as §2
The source holds these as a separate data set.

In experiment [9] the test system is CAL-85-1. The protocol: as §2
The source holds these as a separate data set.

Experiment [10] has as its system MDA-MB-453. The protocol: as §2
This is another data set of the same source.

For experiment [11], the system named is CAL-148. The method, then:
as §2
This is another data set of the same source.

Experiment [12] concerns DU-4475. The method, then: as §2
This is another data set of the same source.

Experiment [13] deals with HDQ-P1. The method, then: (§3)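 DSRT, CellTiter-Blue viability, 72 h incubation. Signal is normalised to DMSO and benzethonium chloride controls. Value is the normalised response at dose 7.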
The source holds these as a separate data set.

Experiment [14] has as its system CAL-51. The method, then:
as §3
This is another data set of the same source.

In experiment [15] the test system is CAL-85-1. The protocol:
as §3
This is another data set of the same source.

Experiment [16] has as its system MDA-MB-453. The protocol:
as §3
This is another data set of the same source.

Experiment [17] relates to CAL-148. The method, then:
as §3
The source holds these as a separate data set.

In experiment [18] the test system is DU-4475. The method, then:
as §3
This is another data set of the same source.

For `CN1CCC(COc2cnc(-c3cccc(Cn4nc(-c5cccc(C#N)c5)ccc4=O)c3)nc2)CC1` (3000 nM), the normalised viability in experiment [1] was 85.4%; in experiment [2] it was 84.4%; in [3] it was 87.3%; in [4] it was 63.8%; in [5], 79.8%; in experiment [6], 108%.
In the case of `CN(C)C/C=C/C(=O)Nc1cc2c(Nc3ccc(F)c(Cl)c3)ncnc2cc1O[C@H]1CCOC1` [Afatinib] (3000 nM), the normalised viability in experiment [1] amounted to 19.4%; in experiment [2] it was 86.2%; in experiment [3] it was 39.6%; in experiment [4], 30%; in [5] it was 58.2%; in [6], 92.7%.
As to `CN1CC[C@H](c2c(O)cc(O)c3c(=O)cc(-c4ccccc4Cl)oc23)[C@H](O)C1` [Alvocidib] (3000 nM), the normalised viability was found to be 13.7% in experiment [1]; 4.88% in experiment [2]; 3.02% in experiment [3]; 7.79% in experiment [4]; 14.4% in [5]; 1.28% in experiment [6].
In the case of `Nc1nc(Cl)nc2c1ncn2[C@H]1C[C@H](O)[C@@H](CO)O1` [Cladribine] (300 nM), the normalised viability in [1] was 96.3%; in experiment [2], 104%; in experiment [3], 92.9%; in experiment [4] it was 96.9%; in experiment [5], 103%; in [6], 102%.
With `Nc1ccn([C@@H]2O[C@H](CO)[C@@H](O)[C@@H]2O)c(=O)n1` [Cytarabine] (3000 nM), the normalised viability in [1] stood at 86.7%; in experiment [2] it was 16.4%; in experiment [3] it was 70.1%; in experiment [4], 62.5%; in experiment [5], 34.8%; in [6] it was 26.1%.
In the case of `Cc1c2oc3c(C)ccc(C(=O)N[C@@H]4C(=O)N[C@H](C(C)C)C(=O)N5CCC[C@H]5C(=O)N(C)CC(=O)N(C)[C@@H](C(C)C)C(=O)O[C@@H]4C)c3nc-2c(C(=O)N[C@@H]2C(=O)N[C@H](C(C)C)C(=O)N3CCC[C@H]3C(=O)N(C)CC(=O)N(C)[C@@H](C(C)C)C(=O)O[C@@H]2C)c(N)c1=O` [Dactinomycin] (300 nM), the normalised viability in experiment [1] worked out at 9.3%; in [2] it was 5.05%; in experiment [3], 2.52%; in experiment [4], 6.05%; in experiment [5], 11.4%; in experiment [6], 1.26%.
On to `COc1cccc2c1C(=O)c1c(O)c3c(c(O)c1C2=O)C[C@@](O)(C(=O)CO)C[C@@H]3O[C@H]1C[C@H](N)[C@H](O)[C@H](C)O1` [Doxorubicin] (300 nM), for which the normalised viability in [1] turned out to be 58%; in experiment [2], 33.5%; in experiment [3], 54%; in experiment [4] it was 70.6%; in experiment [5], 31.9%; in [6], 39.4%.
In the case of `Cc1ccc(F)c(NC(=O)Nc2ccc(-c3cccc4[nH]nc(N)c34)cc2)c1` [Linifanib] (300 nM), the normalised viability is 111% in [1]; 101% in [2]; 103% in experiment [3]; 113% in experiment [4]; 104% in [5]; 105% in [6].
In the case of `COc1cc(Nc2ncc3c(n2)-c2ccc(Cl)cc2C(c2c(F)cccc2OC)=NC3)ccc1C(=O)O` [MLN8237] (300 nM), the normalised viability in experiment [7] came to 44.1%; in [8], 35.9%; in [9], 44%; in experiment [10], 64.7%; in experiment [11] it was 49.2%; in [12], 9.79%.
`COc1cc(Nc2ncc3c(n2)-c2ccc(Cl)cc2C(c2c(F)cccc2OC)=NC3)ccc1C(=O)O` [MLN8237] (1000 nM): the normalised viability is 54.2% in [13]; 27.2% in experiment [14]; 69.1% in experiment [15]; 68.9% in experiment [16]; 36.9% in [17]; 16.5% in experiment [18].
As to `COc1cc(Nc2ncc3c(n2)-c2ccc(Cl)cc2C(c2c(F)cccc2OC)=NC3)ccc1C(=O)O` [MLN8237] (3000 nM), the normalised viability in [1] turned out to be 58%; in [2], 26.2%; in experiment [3] it was 69.2%; in experiment [4], 60.1%; in experiment [5] it was 28.8%; in experiment [6] it was 18.3%.
As for `S=c1[nH]cnc2nc[nH]c12` [Mercaptopurine] (300 nM), the normalised viability in experiment [7] came out at 76.6%; in experiment [8], 97.8%; in [9], 83.8%; in experiment [10] it was 110%; in experiment [11] it was 102%; in [12], 112%.
As for `S=c1[nH]cnc2nc[nH]c12` [Mercaptopurine] (3000 nM), the normalised viability in [1] worked out at 88.9%; in [2] it was 90.1%; in [3], 83.3%; in experiment [4] it was 115%; in [5] it was 90.8%; in [6] it was 114%.
For `Clc1ccc(C(c2ccccc2Cl)C(Cl)Cl)cc1` (stereo unspecified) [Mitotane] (300 nM), the normalised viability in experiment [7] was 92.5%; in experiment [8] it was 109%; in experiment [9], 94.5%; in experiment [10] it was 110%; in experiment [11], 101%; in experiment [12], 95%.
In the case of `Clc1ccc(C(c2ccccc2Cl)C(Cl)Cl)cc1` (stereo unspecified) [Mitotane] (3000 nM), the normalised viability in experiment [1] is 91.7%; in experiment [2], 111%; in [3], 94.6%; in [4], 113%; in experiment [5], 103%; in experiment [6], 96.2%.
Regarding `COc1cccc2cc(-c3nc([C@H]4CC[C@H](C(=O)O)CC4)n4ncnc(N)c34)[nH]c12` [OSI-027] (300 nM), the normalised viability in experiment [7] is 37.9%; in [8] it was 74.3%; in experiment [9], 75.5%; in experiment [10], 66.1%; in experiment [11], 76.1%; in experiment [12] it was 82.5%.
